# In patent US8431563B2 (priority 2010, dated 2013):
# Key:
# GK-GKRP [1] = target: T1, GK-GKRP (Homo sapiens, UniProt Q14397); experiment: biochemical; settings: GK-GKRP IC50 (Binding)
# T1 sequence (Q14397 1-625): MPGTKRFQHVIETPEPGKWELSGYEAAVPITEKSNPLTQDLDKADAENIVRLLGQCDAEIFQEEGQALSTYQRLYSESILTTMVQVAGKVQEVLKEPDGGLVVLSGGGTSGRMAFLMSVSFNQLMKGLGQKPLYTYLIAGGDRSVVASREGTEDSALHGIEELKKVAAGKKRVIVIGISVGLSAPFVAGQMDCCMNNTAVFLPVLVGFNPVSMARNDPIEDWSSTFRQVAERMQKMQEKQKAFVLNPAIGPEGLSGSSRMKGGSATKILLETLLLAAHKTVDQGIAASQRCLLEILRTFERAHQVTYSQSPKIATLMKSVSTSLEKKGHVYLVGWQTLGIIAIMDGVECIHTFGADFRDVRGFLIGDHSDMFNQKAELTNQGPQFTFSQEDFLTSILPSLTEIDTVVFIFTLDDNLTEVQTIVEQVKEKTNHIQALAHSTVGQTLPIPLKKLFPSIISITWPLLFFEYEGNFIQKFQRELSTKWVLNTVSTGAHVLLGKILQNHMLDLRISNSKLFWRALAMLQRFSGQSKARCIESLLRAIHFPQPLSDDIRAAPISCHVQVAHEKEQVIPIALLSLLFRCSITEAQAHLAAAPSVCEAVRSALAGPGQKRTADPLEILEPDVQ
# GK-GKRP [2] = target: T1, GK-GKRP; experiment: biochemical
compound,measurement,setting,value
"CC(O)(c1ccc(N2CCN(S(=O)(=O)c3cccs3)C[C@@H]2CN2C(=O)NC(=O)C23CCC3)cc1)C(F)(F)F (mixture of isomers) [Example 236, 5-(((2S)-4-(2-thiophenylsulfonyl)-1-(4-(2,2,2-trifluoro-1-hydroxy-1-methylethyl)phenyl)-2-piperazinyl)methyl)-5,7-diazaspiro[3.4]octane-6,8-dione]",IC50,GK-GKRP [1],379 nM
same,EC50,GK-GKRP [2],363 nM
"CC(C)S(=O)(=O)NC[C@H]1CN(S(=O)(=O)c2cccs2)CCN1c1ccc(C(C)(O)C(F)(F)F)cc1 (mixture of isomers) [Example 237, N-(((2S)-4-(thiophen-2-ylsulfonyl)-1-(4-(1,1,1-trifluoro-2-hydroxypropan-2-yl)phenyl)piperazin-2-yl)methyl)propane-2-sulfonamide]",IC50,GK-GKRP [1],335 nM
same,EC50,GK-GKRP [2],632 nM
"CC(C)N1C(=O)N(C[C@H]2CN(S(=O)(=O)c3cccs3)CCN2c2ccc(C(C)(O)C(F)(F)F)cc2)C(C)(C)C1=O (mixture of isomers) [Example 242, 5,5-dimethyl-3-(1-methylethyl)-1-(((2S)-4-(2-thiophenylsulfonyl)-1-(4-(2,2,2-trifluoro-1-hydroxy-1-methylethyl)phenyl)-2-piperazinyl)methyl)-2,4-imidazolidinedione]",IC50,GK-GKRP [1],19 nM
same,EC50,GK-GKRP [2],29 nM
"CC1(C)C(=O)NCCN1C[C@H]1CN(S(=O)(=O)c2ccc(N)nc2)CCN1c1ncc(C(O)(C(F)(F)F)C(F)(F)F)cn1 [Example 235, 4-(((2S)-4-((6-amino-3-pyridinyl)sulfonyl)-1-(5-(2,2,2-trifluoro-1-hydroxy-1-(trifluoromethyl)ethyl)-2-pyrimidinyl)-2-piperazinyl)methyl)-3,3-dimethyl-2-piperazinone]",IC50,GK-GKRP [1],8 nM
same,EC50,GK-GKRP [2],13 nM
"CCC(C)S(=O)(=O)NC[C@H]1CN(S(=O)(=O)c2cccs2)CCN1c1ccc(C(C)(O)C(F)(F)F)cc1 (stereo partly drawn) [Example 238, N-(((2S)-4-(2-thiophenylsulfonyl)-1-(4-(2,2,2-trifluoro-1-hydroxy-1-methylethyl)phenyl)-2-piperazinyl)methyl)-2-butanesulfonamide]",IC50,GK-GKRP [1],204 nM
same,EC50,GK-GKRP [2],270 nM
"Nc1ccc(S(=O)(=O)N2CCN(c3ncc(C(O)(C(F)(F)F)C(F)(F)F)cn3)C(C#CC3CC3)C2)cn1 (stereo not drawn) [Example 246, 2-(2-(4-((6-amino-3-pyridinyl)sulfonyl)-2-(cyclopropylethynyl)-1-piperazinyl)-5-pyrimidinyl)-1,1,1,3,3,3-hexafluoro-2-propanol]",IC50,GK-GKRP [1],191 nM
same,EC50,GK-GKRP [2],314 nM
"O=S(=O)(c1ccccc1)c1ccc(-c2ncc(C(O)(C(F)(F)F)C(F)(F)F)cn2)cc1 [Example 263, 1,1,1,3,3,3-hexafluoro-2-(2-(4-(phenylsulfonyl)phenyl)-5-pyrimidinyl)-2-propanol]",IC50,GK-GKRP [1],484 nM
same,EC50,GK-GKRP [2],478 nM
"Nc1ccc(S(=O)(=O)c2ccc(-c3ncc(C(O)(C(F)(F)F)C(F)(F)F)cn3)cn2)cn1 [Example 267, 2-(2-(6-((6-amino-3-pyridinyl)sulfonyl)-3-pyridinyl)-5-pyrimidinyl)-1,1,1,3,3,3-hexafluoro-2-propanol]",IC50,GK-GKRP [1],103 nM
same,EC50,GK-GKRP [2],113 nM
"Cc1cc(S(=O)(=O)c2ccc(N)nc2)ccc1-c1ncc(C(O)(C(F)(F)F)C(F)(F)F)cn1 [Example 268, 2-(2-(4-((6-amino-3-pyridinyl)sulfonyl)-2-methylphenyl)-5-pyrimidinyl)-1,1,1,3,3,3-hexafluoro-2-propanol]",IC50,GK-GKRP [1],103 nM
same,EC50,GK-GKRP [2],232 nM
